Patent publication US20200000752A1, “Method for Treating Epilepsy” (Vanderbilt University, priority 2016, published 2020)

Columns and labels:
[1] = Hepatic microsomal clearance (human); type: in vitro ADME; details: liver microsomes, pH 7.4
Method: (§1) Intrinsic clearance and predicted hepatic clearance: Intrinsic clearance will be determined using the substrate depletion approach. Reactions (0.3 mL) will be conducted using a Tecan EVO (San Jose, Calif.) in 96-well polypropylene cluster tubes with a temperature controlled water-jacketed aluminum plate holder held at 37° C. Incubations will be performed in triplicate in 0.1 M potassium phosphate buffer (pH 7.4), 3 mM MgCl2, 1 μM tizanidine, and 1 mg/mL liver microsomes. After incubation mixtures are equilibrated for 3 min at 37° C., reactions will be initiated with 10 mM NADPH to give a final NADPH concentration of 1 mM. At 0, 3, 7, 15, 25, and 45 min, a 25 μL aliquot will be removed from the reactions and delivered into 125 μL of acetonitrile containing an internal standard. The quench plates will then be centrifuged at 3,000×g for 10 min and an aliquot of the supernatants added to an injection plate with an equal volume of water. Samples will then be analyzed using LC/MS/MS.
(§2) Intrinsic clearance is calculated as: […]
(§3) Species-specific parameters for mouse and human liver protein content will be used. The predicted hepatic clearance will then be estimated using species-specific liver blood flow values: […]

[2] = Hepatic microsomal clearance (mouse); type: in vitro ADME; details: liver microsomes, pH 7.4
Method: as §1, §2, §3

Plasma protein binding = type: in vitro ADME; details: read-out: fraction unbound in plasma (fuplasma)
Gabrg2^+/Q390X mice [3] = assay: EEG spike-wave discharges (SWD) in Gabrg2+/Q390X mice after 14 days dosing; type: in vivo, mouse
Method: (FIG. 4A). […] . (FIG. 4B). In 4B, the mice were recorded for 24 hrs for EEGs and a uniform 5-min of EEGs was scored for each hour. The SWDs with duration >1 sec were quantified.

Gabrg2^+/Q390X mice [4] = assay: Early intermittent dosing, survival of Gabrg2+/Q390X mice; type: in vivo, mouse; details: 0.3 mg/kg intermittent from postnatal day 7; untreated ~25% mortality
Excerpt: (FIG. 5B, C). Gabrg2^+/Q390X mice in C57/BL/6J background had ˜25% of mortality (B) while Scn1a^+/− mice in C57/BL/6J background had ˜60% of mortality by week 7 (C). […] The Gabrg2^+/Q390X mice were in C57/BL/6J background while Scn1a^+/− sires were from mixed S129/C57BL/6J and the dams were congenic C57/BL/6J. For each mouse model, heterozygous pups of both male and female from 6-8 litters were included.

[5] = biological target: T1, GABAA α1β2γ2(Q390X) receptors (Homo sapiens, UniProt P14867+P18507+P47870, DEL390-467); assay: Patch clamp current amplitude, α1β2γ2(Q390X) receptors in HEK 293T cells; type: cell-based; details: 1 μm, 4 hrs; GABA 1 mM
T1 construct: expressed in transfected cells; host or cells: HEK 293T
T1 sequence (P14867 28-456, stated change not applied): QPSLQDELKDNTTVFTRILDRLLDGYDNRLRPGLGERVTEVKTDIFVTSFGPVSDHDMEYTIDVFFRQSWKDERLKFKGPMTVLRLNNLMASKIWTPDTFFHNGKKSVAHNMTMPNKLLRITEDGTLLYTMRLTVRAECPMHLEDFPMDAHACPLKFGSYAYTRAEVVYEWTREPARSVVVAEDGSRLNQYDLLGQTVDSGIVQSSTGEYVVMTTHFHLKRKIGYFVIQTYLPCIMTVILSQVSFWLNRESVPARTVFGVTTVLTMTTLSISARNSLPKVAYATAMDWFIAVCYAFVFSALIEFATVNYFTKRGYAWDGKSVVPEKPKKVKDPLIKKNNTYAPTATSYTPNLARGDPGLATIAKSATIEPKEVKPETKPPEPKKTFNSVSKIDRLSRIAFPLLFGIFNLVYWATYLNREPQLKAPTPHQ
T1 sequence (P47870 26-512, stated change not applied): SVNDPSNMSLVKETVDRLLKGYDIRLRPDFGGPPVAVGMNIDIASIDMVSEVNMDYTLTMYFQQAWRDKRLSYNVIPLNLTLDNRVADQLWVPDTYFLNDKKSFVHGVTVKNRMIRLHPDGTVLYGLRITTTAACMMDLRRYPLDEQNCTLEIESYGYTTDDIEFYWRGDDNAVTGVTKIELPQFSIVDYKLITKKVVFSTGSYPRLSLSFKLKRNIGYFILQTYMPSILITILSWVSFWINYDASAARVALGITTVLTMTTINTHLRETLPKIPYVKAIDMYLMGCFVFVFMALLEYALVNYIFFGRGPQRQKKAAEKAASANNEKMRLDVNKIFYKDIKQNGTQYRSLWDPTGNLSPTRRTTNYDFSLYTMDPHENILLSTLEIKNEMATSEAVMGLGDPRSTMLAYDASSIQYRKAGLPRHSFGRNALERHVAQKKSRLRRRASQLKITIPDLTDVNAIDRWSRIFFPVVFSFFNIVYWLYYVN
T1 sequence (P18507 40-389 isoform P18507-1 limits assumed, stated change not applied): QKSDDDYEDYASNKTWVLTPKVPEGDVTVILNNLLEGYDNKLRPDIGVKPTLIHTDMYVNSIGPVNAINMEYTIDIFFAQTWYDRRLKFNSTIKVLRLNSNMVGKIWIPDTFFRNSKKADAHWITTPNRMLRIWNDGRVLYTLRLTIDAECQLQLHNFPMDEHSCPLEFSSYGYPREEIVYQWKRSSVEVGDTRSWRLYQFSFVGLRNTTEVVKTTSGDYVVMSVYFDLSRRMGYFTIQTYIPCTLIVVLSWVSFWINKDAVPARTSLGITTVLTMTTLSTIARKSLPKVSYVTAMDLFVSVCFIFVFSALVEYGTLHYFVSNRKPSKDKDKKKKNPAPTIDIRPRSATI
Method: HEK 293T cells were transfected with the human GABAA receptor α1, β2 subunits with the wild-type γ2s, the mutant γ2s(Q390X) or γ2s(R82Q) subunits for 48 hrs. […] A. Lifted whole cells were recorded with the application of GABA 1 mM for 6 sec. Cells was voltage clamped at −50 mV.
HEK 293T cells were transfected with the human GABAA receptor α1, β2 subunits with the wild-type γ2s, the mutant γ2s(Q390X) or γ2s(R82Q) subunits for 48 hrs.

GABAergic mIPSCs = GABAergic mIPSCs in cortical layer VI pyramidal neurons of Gabrg2+/Q390X mice; type: in vivo, mouse
Excerpt: […]. This effect is consistent with its upregulation of GABAA receptor subunits. There is no difference between the decay tau (time constant) in the condition treated with celastrol vs non treated. (n=7-9 cells from 3 mice in each group, *P<0.05, ** P<0.01 vs het).
Coronal ([…]) or horizontal ([…] thick) brain slices containing thalamic neurons in nucleus reticularis thalami (nRT), ventrobasal nucleus (VBn), Ventral lateral thalamus (VL) and cortex will be sectioned with a vibratome in ice-cooled solution containing (in mM) 214 Sucrose, 2.5 KCl, 1.25 NaH2PO4, 0.5 CaCl2), 10 MgSO4, 24 NaHCO3, and 11 D-glucose, pH 7.4 bubbled with 95% O2/5% CO2 at 4° C. Slices are then incubated in oxygenated artificial cerebrospinal fluid (ACSF)^40 at 36° C. for 30 min (Moyer and Brown, 1998). After this, slices will be kept at room temperature for at least 1 hr before recording on a Nikon Eclipse FN-1 IR-DIC microscope at room temperature. Pipette internal solution will contain (in mM): 135 CsCl, 10 EGTA, 10 HEPES, 5 ATP-Mg, and QX-314 (5 mM) (pH 7.25, 290-295 mOsm), and resistances will be of 2-4 MΩ (25). Tetrodotoxin (TIX) 1 μm will be added to the external solution. We will record the neurons in layer V-VI in somatosemsory cortex in this application. The experimental details have been described before^39.

Scn1a^+/− mice [6] = assay: Survival and seizure activity in Scn1a+/- mice after 1 month off celastrol; type: in vivo, mouse; details: 0.3 mg/kg 14 d on and 1 month off
Excerpt: Intermittent dosing will greatly increase compliance and reduce side effects for long-term treatment. However, it is necessary to determine the duration the efficacy lasts after certain doses and the duration it takes to recover to baseline.

PI3K/AKT pathway = PI3K/AKT pathway activation in vitro; type: cell-based
Scn1a^+/− mice [7] = system: Scn1a^+/− mice
[8] = system: cytochrome P450 enzymes (CYPs); details: cited from earlier work
CYP 1A2 = CYP 1A2 (Homo sapiens, UniProt P05177); assay: biochemical
CYP 1A2, sequence (P05177 whole entry): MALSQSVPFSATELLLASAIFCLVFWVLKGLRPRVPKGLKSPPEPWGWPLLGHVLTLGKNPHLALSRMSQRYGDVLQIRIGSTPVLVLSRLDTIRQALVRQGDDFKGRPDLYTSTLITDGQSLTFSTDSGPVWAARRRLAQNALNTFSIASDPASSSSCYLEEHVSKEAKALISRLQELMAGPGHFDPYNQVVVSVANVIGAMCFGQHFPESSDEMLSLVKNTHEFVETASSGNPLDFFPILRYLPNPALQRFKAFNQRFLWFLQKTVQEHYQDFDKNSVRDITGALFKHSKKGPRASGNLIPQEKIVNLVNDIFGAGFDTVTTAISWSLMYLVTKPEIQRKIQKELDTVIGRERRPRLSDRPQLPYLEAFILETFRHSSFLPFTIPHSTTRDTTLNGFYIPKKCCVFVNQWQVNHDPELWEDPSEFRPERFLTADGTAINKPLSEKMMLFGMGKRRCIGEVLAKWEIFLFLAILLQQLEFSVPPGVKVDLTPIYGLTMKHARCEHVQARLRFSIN

Compound: CC1=C(O)C(=O)C=C2C1=CC=C1[C@@]2(C)CC[C@@]2(C)[C@@H]3C[C@](C)(C(=O)O)CC[C@]3(C)CC[C@]12C [Celastrol, 3-Hydroxy-9β,13α-dimethyl-2-oxo-24,25,26-trinoroleana-1(10),3,5,7-tetraen-29-oic acid]
- CLint scaled [1]: 31 mL/min/kg
- CLint scaled [2]: 160 mL/min/kg
- fraction unbound (Plasma protein binding): < 0.022
- efficacy and tolerability (Gabrg2^+/Q390X mice [3]; 0.3 mg/kg IP daily for 14 days): good efficacy and tolerability
- seizures (Gabrg2^+/Q390X mice [3]; 1 and 5 mg/kg via oral gavage): seizure reduction
- frequency of SWDs (Gabrg2^+/Q390X mice [3]; IP or oral gavage daily for 14 days, SWDs >1 sec, 24 hrs EEG): dose dependently reduced
- survival (Gabrg2^+/Q390X mice [4]): completely rescued the survival
- current amplitude [5]: increased
- amplitude of GABAergic mIPSCs (GABAergic mIPSCs; 0.3 mg/kg IP for 14 days): increased
- frequency of GABAergic mIPSCs (GABAergic mIPSCs; 0.3 mg/kg IP for 14 days): increased
- decay tau (time constant) (GABAergic mIPSCs; treated vs non treated): no difference
- seizure duration after PTZ (Scn1a^+/− mice [6]): shortened seizure duration
- seizure onset after PTZ (Scn1a^+/− mice [6]): delayed seizure onset
- seizure severity after PTZ (Scn1a^+/− mice [6]): reduced seizure severity
- survival (Scn1a^+/− mice [6]; vs untreated littermates): increased survival
- PI3K/AKT pathway (PI3K/AKT pathway): activate PI3K/AKT pathway
- Number SWDs (Scn1a^+/− mice [7]; SWDs over 1 sec, 30 min after PTZ 50 mg/kg, n=2, celastrol 0.3 mg/kg intermittent (8th day of drug holiday), diazepam 0.3 mg/kg, stiripentol 150 mg/kg, saline 21): 2
- efficacy in reducing seizure severity versus comparators (Scn1a^+/− mice [7]; chronic intermittent dosing 0.3 mg/kg IP): Better Efficacy in Reducing Seizure Severity than Diazepam or Stiripentol
- CYP inhibition as reported in the literature [8]: inhibits several CYP enzymes
- IC50 (CYP 1A2): > 10 µM
